Data as given in patent publication US20240024273A1, “TOPICAL ADMINISTRATION OF 2-(DIETHYLAMINO)ETHYL 2-(4-ISOBUTYLPHENYL)PROPRIONATE FOR TREATMENT OF DISEASES” (TECHFIELDS PHARMA CO., LTD., priority 2020, published 2024).

What was measured:
Format in all cases: in vivo, human
[1] = test system: osteoarthritis of the knee; assay: Second Phase 2 study: Investigator's global assessment of disease status (IGADS); conditions: Week 12
[2] = test system: osteoarthritis of the knee; assay: Second Phase 2 study: WOMAC difficulty performing daily activities (functional ability) subscale score
Source text: (§1) This is a Phase 2, multicenter, randomized, double blind (within dose), Ibuprofen-placebo controlled, parallel group, dose range finding study to evaluate the efficacy, safety, and PK of 2-(diethylamino)ethyl 2-(4-isobutylphenyl)propionate spray in adult subjects with clinically symptomatic OA of the knee. For subjects with bilateral knee pain, both knees will be treated, but the most symptomatic knee (ie, the most painful knee as measured by the Western Ontario and McMaster University Osteoarthritis Index [WOMAC® 3.1] pain subscale score at Screening) will be designated as the target knee for efficacy analyses. For subjects with unilateral knee pain, only the symptomatic (target) knee will be treated.
(§2) The VAS version of the WOMAC will be used for the Primary and Secondary Efficacy Endpoints. Efficacy endpoints will be assessed at Screening and Baseline (Day 1) and at the Week 2, Week 4, Week 8, and Week 12/EOS visits.
(§3) 4.9.2. Secondary Efficacy Endpoints: • 1. Change from Baseline in the WOMAC (VAS) pain subscale score for the target knee at 2, 8, and 12 weeks of treatment; • 2. Change from Baseline in the WOMAC (VAS) stiffness subscale scores for the target knee and WOMAC (VAS) functional ability subscale scores at 2, 4, 8, and 12 weeks of treatment; • 3. Change from Baseline in the overall WOMAC (VAS) score at 2, 4, 8, and 12 weeks of treatment; • 4. Subject's global assessment of disease status of the target knee at 2, 4, 8, and 12 weeks of treatment; • 5. Subject's global assessment of response to therapy of the target knee at 2, 4, 8, and 12 weeks of treatment; • 6. Amount of rescue medication (acetaminophen) consumed per day for target knee pain.
(§4) The Secondary Efficacy Endpoints, change from Baseline in the WOMAC subscale scores for pain, stiffness, and functional ability, and overall WOMAC score at 2, 4, 8, and 12 weeks of treatment, will be analyzed using the same methods as for the Primary Efficacy Endpoint.

[3] = test system: osteoarthritis of the knee; assay: Second Phase 2 study: Subject Global Impression of Change (SGIC); conditions: Week 12
Source text: as §3

[4] = test system: osteoarthritis of the knee; assay: Second Phase 2 study: WOMAC overall score
Source text: as §1, §2, §3, §4

[5] = oral, 3 x 400 mg (n = 20), first 130 subjects
[6] = all subjects, Oral Ibuprofen 3 × 400 mg, n = 48
[7] = Baseline, oral, 3 × 400 mg (n = 20), first 130 subjects
[8] = Week 12, oral, 3 × 400 mg (n = 20), first 130 subjects
[9] = all subjects, Oral Ibuprofen 3 × 400 mg, n = 48, Week 12
[10] = all subjects, Oral Ibuprofen 3 × 400 mg, n = 48 vs. Placebo n = 48
[11] = oral 3×400 mg, first 130 subjects

CC(C)Cc1ccc(C(C)C(=O)O)cc1 (stereo not drawn) [Ibuprofen, 2-(4-isobutylphenyl)propionic acid, reference compound]
IGADS: Good and Very good [1, 5]: 40.0%
IGADS: Poor and Very Poor [1, 5]: 15.0%
IGADS: fair [1, 5]: 45.0%
IGADS, Good and Very good [1, 6]: 39.6%
IGADS, Poor and Very Poor [1, 6]: 4.1%
WOMAC Difficulty Performing Daily Activities Subscale Scores, Baseline (LS Mean) [2, 7]: 65.5 mm
WOMAC Difficulty Performing Daily Activities Subscale Scores, % of improvement from Placebo [2, 8]: −3.3%
WOMAC Difficulty Performing Daily Activities Subscale Scores, % of improvement from baseline [2, 8]: −33.0%
WOMAC Difficulty Performing Daily Activities Subscale Scores, Changes from Baseline (LS Mean) [2, 8]: −21.6 mm
WOMAC Difficulty Performing Daily Activities Subscale Scores, Different from placebo (LS Mean) [2, 8]: −3.5 mm
WOMAC Difficulty Performing Daily Activities Subscale Scores, Week 12 (LS Mean) [2, 8]: 43.9 mm
WOMAC Difficulty Performing Daily Activities Subscale Scores, % of improvement from Placebo [2, 9]: −4.3%
WOMAC Difficulty Performing Daily Activities Subscale Scores, % of improvement from baseline [2, 9]: −41.5%
WOMAC Difficulty Performing Daily Activities Subscale Scores, Changes from Baseline (LS Mean) [2, 9]: −25.3 mm
WOMAC Difficulty Performing Daily Activities Subscale Scores, Week 12 (LS Mean) [2, 9]: 35.7 mm
WOMAC Functional Ability, difference vs. Placebo [2, 10]: −3.4 mm
WOMAC functional ability, difference from placebo [2, 11]: −3.5 mm
SGIC: Good and Very good [3, 5]: 55.0%
SGIC: Poor and Very Poor [3, 5]: 10.0%
SGIC: fair [3, 5]: 35.0%
SGIC, Good and Very good [3, 6]: 47.9%
SGIC, Poor and Very Poor [3, 6]: 8.3%
SGIC, fair [3, 6]: 43.8%
Subject's satisfaction rate (SGIC good and very good) ([3]; oral 3×400 mg/day, first 130 subjects): 55%
WOMAC Overall Scores, Baseline (LS Mean) [4, 7]: 65.0 mm
WOMAC Overall Scores, % of improvement from baseline [4, 8]: −33.1%
WOMAC Overall Scores, % of improvement from placebo [4, 8]: −2.9%
WOMAC Overall Scores, Changes from Baseline (LS Mean) [4, 8]: −21.5 mm
WOMAC Overall Scores, Different from placebo (LS Mean) [4, 8]: −3.1 mm
WOMAC Overall Scores, Week 12 (LS Mean) [4, 8]: 43.5 mm
WOMAC Overall Scores, % of improvement from baseline [4, 9]: −41.3%
WOMAC Overall Scores, % of improvement from placebo [4, 9]: −5.1%
WOMAC Overall Scores, Changes from Baseline (LS Mean) [4, 9]: −24.9 mm
WOMAC Overall Scores, Week 12 (LS Mean) [4, 9]: 35.4 mm
WOMAC Total, difference vs. Placebo [4, 10]: −3.6 mm
WOMAC overall, difference from placebo [4, 11]: −3.0 mm
